The record followed here is patent US10065990B2, “Cyclic peptide compound, and preparation method, pharmaceutical composition and use thereof” (HANGZHOU GUANYU BIO-MEDICAL CO., LTD, priority 2013, dated 2018).

Like-named read-outs stand apart in the source and are kept apart here.

The target of one assay is T1, HDAC7 (Homo sapiens, UniProt Q8WUI4).
T1 sequence (Q8WUI4 1-952): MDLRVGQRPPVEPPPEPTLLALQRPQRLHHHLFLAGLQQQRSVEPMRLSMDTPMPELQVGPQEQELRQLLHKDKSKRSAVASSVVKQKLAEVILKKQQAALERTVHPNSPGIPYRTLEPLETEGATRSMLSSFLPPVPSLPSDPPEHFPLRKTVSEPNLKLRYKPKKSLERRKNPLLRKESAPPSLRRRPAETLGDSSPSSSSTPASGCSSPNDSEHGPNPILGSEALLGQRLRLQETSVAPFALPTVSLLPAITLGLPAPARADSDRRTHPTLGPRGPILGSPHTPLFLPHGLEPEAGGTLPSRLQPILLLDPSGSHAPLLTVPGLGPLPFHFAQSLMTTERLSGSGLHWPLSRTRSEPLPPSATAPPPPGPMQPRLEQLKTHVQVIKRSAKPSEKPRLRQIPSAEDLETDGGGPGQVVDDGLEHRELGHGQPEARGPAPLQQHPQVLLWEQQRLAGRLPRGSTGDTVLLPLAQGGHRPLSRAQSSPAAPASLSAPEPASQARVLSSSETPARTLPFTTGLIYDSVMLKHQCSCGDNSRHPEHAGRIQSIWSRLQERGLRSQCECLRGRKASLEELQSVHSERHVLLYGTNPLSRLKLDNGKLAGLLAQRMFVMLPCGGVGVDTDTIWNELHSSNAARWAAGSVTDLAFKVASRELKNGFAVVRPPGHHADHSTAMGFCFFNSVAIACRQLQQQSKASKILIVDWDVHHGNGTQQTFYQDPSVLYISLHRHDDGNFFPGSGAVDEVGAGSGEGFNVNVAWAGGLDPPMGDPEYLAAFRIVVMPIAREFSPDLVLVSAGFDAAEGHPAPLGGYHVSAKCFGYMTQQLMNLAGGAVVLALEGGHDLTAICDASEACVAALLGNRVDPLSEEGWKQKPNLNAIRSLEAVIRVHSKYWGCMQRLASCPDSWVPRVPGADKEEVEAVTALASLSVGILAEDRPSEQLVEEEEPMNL
The experiment in a line: HDAC biochemical activity measurement (fluorescent substrate deacetylation).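 Further: fluorogenic deacetylation assay using acetyl-lysine substrate at 20 µM, enzyme and compound incubated 30 min at 37 °C, then developer added, fluorescence read at 360/460 nm.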 To be noted: HDAC7; 37° C. 30 minutes.

Assay [1] deals with KBM5-T315I (human chronic myelogenous leukemia). The assay can be described thus: MTT cancer cell growth inhibition. The class given is cell-based. To be noted: Homo sapiens, 72 h, MTT, 72 hours incubation, KBM5-T315I cells; read-out: GI50 KBM5-T315I. In short, it runs like this:
(§1)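 GI50 values come from viability measured by MTT reduction at 570 nm. Plated overnight at 1500 cells per well, cultures received drug in three parallel wells across 10^−5–10^−10 M final and were incubated 72 h at 37° C. under 5% CO2 before MTT for 4 h.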

For assay [2], the system named is H1975 (non-small cell lung adenocarcinoma). The experiment in a line: MTT cancer cell growth inhibition. In kind it is cell-based. To be noted: Homo sapiens, NCI-H1975, 72 h, MTT, 72 hours incubation, H1975 cells; read-out: GI50 H1975. Summed up: as §1
Assay [3] relates to DU145 (human prostate cancer cells). The experiment in a line: MTT cancer cell growth inhibition. In kind it is cell-based. To be noted: Homo sapiens, DU-145, 72 h, MTT, 72 hours incubation, read-out: GI50 Du1. In short, it runs like this: as §1
The test system of assay [4] is Huh-7 (human hepatoma cells). The experiment in a line: MTT cancer cell growth inhibition. The class given is cell-based. To be noted: Homo sapiens, Huh-7, 72 h, MTT, 72 hours incubation, Huh-7 cells; read-out: GI50 Huh-7. Summed up: as §1
In assay [5] the test system is N-87 (human gastric cancer cells). The assay can be described thus: MTT cancer cell growth inhibition. The class given is cell-based. To be noted: Homo sapiens, 72 h, MTT, 72 hours incubation, N-87 cells; read-out: GI50 N-87. In short, it runs like this: as §1
The test system of assay [6] is SGC-7901 (human gastric cancer cells). The experiment in a line: MTT cancer cell growth inhibition. To be noted: Homo sapiens, SGC-7901, 72 h, MTT, 72 hours incubation, SGC-7901 cells; read-out: GI50 SGC-7901. The class given is cell-based. In short, it runs like this:
as §1

In assay [7] the test system is KBM-5 (human chronic myelogenous leukemia). The experiment in a line: MTT cancer cell growth inhibition. In kind it is cell-based. To be noted: Homo sapiens, KBM5, 72 h, MTT, 72 hours incubation, KBM-5 cells; read-out: GI50 KBM-5. Summed up:
as §1

Assay [8] has as its system K562 (human leukemia cells). The experiment in a line: MTT cancer cell growth inhibition. To be noted: Homo sapiens, K562, 72 h, MTT, 72 hours incubation, K562 cells; read-out: GI50 K562. The class given is cell-based. Summed up: as §1
For assay [9], the system named is A549 (human lung cancer cells). The assay can be described thus: MTT cancer cell growth inhibition. The class given is cell-based. To be noted: Homo sapiens, A549, 72 h, MTT, 72 hours incubation, read-out: GI50 A54. In short, it runs like this: as §1
The test system of assay [10] is lncap (prostate cancer cells). The assay can be described thus: MTT cancer cell growth inhibition. In kind it is cell-based. To be noted: Homo sapiens, LNCaP, 72 h, MTT, 72 hours incubation, read-out: GI50 lnca. In short, it runs like this:
as §1

For assay [11], the system named is BGC-823 (human gastric cancer cells). The assay can be described thus: MTT cancer cell growth inhibition. The class given is cell-based. To be noted: Homo sapiens, BGC-823, 72 h, MTT, 72 hours incubation, read-out: GI50 BG. Summed up:
as §1

Assay [12] has as its system Bel-7402 (human hepatoma cells). The experiment in a line: MTT cancer cell growth inhibition. The class given is cell-based. To be noted: Homo sapiens, Bel-7402, 72 h, MTT, 72 hours incubation, Bel-7402 cells; read-out: GI50 Bel-7402. In short, it runs like this:
as §1

Assay [13] has as its system HT1080 (human fibrosarcoma cells). The experiment in a line: MTT cancer cell growth inhibition. In kind it is cell-based. To be noted: Homo sapiens, HT-1080, 72 h, MTT, 72 hours incubation, read-out: GI50 HT1. In short, it runs like this:
as §1

For assay [14], the system named is U937 (human leukemia cells). The assay can be described thus: MTT cancer cell growth inhibition. The class given is cell-based. To be noted: Homo sapiens, U-937, 72 h, MTT, 72 hours incubation, read-out: GI50 U93. Summed up: as §1
Assay [15] has as its system MOLT-4 (human acute lymphoblastic leukemia cells). The assay can be described thus: MTT cancer cell growth inhibition. To be noted: Homo sapiens, MOLT-4, 72 h, MTT, 72 hours incubation, read-out: GI50 Mol. The class given is cell-based. Summed up: as §1
In assay [16] the test system is MDA-MB-231 (breast cancer cells). The experiment in a line: MTT cancer cell growth inhibition. In kind it is cell-based. To be noted: Homo sapiens, MDA-MB-231, 72 h, read-out: GI50 MDA-MB-231, MTT, 72 hours incubation, MDA-MB-231 cells. Summed up: as §1
Assay [17] concerns MCF-7 (human breast cancer cells). The experiment in a line: MTT cancer cell growth inhibition. The class given is cell-based. To be noted: Homo sapiens, MCF7, 72 h, 72 hours incubation, read-out: GI50 MCF. In short, it runs like this: as §1
Assay [18] concerns PANC-1 (Pac-1, human pancreatic cancer cells). The experiment in a line: MTT cancer cell growth inhibition. The class given is cell-based. To be noted: Homo sapiens, PANC-1, 72 h, MTT, 72 hours incubation, read-out: GI50 PAN. In short, it runs like this:
as §1

The subject of assay [19] is HCC827 (human non-small cell lung cancer cells). The assay can be described thus: MTT cancer cell growth inhibition. In kind it is cell-based. To be noted: Homo sapiens, HCC827, 72 h, MTT, 72 hours incubation, HCC827 cells; read-out: GI50 HCC827. Summed up:
as §1

In assay [20] the test system is Hela (human cervical cancer cells). The experiment in a line: MTT cancer cell growth inhibition. The class given is cell-based. To be noted: Homo sapiens, HeLa, 72 h, MTT, 72 hours incubation, read-out: GI50 Hela. Summed up:
as §1

With `C/C=C1\NC(=O)c2ccc(F)c(n2)CNC(=O)C[C@@H](/C=C/CCS)OC(=O)[C@H](Cc2ccc(O)cc2)NC1=O` [Compound 130], on HDAC7, the “IC50 HDAC7” value is reported as “no activity”. The GI50 was 11 nM in [1]; 42 nM in [2]; 30 nM in assay [3]; 41 nM in assay [4]; 58 nM in [5]; 42 nM in [6]. For the same compound, the GI50 in assay [7] was 23 nM; in assay [8], 28 nM; in assay [9], 70 nM; in assay [10], 20 nM; in [11], 50 nM; in assay [12], 32 nM. Further, the 50% growth inhibitory concentration (GI50) in [13] was 100 nM; in assay [14], 30 nM; in assay [15], 30 nM; in assay [16], 38 nM; in [17], 70 nM; in assay [18], 40 nM. Further, the 50% growth inhibitory concentration (GI50) in [19] was determined as 54 nM; in assay [20], 130 nM.
For `C/C=C1\NC(=O)c2nc(ccc2SC)CNC(=O)C[C@@H](/C=C/CCSC(C)=O)OC(=O)[C@H](Cc2ccccc2)NC1=O` [Compound 186], at HDAC7, the “IC50 HDAC7” value was “no activity”. Further, the 50% growth inhibitory concentration (GI50) turned out to be 21 nM in [1]; 63 nM in assay [2]; 100 nM in assay [3] (DU145 cells); 16 nM in [4]; 28 nM in assay [5]; 43 nM in assay [6]. Also, the 50% growth inhibitory concentration (GI50) came out at 36 nM in [7]; 39 nM in assay [8]; 30 nM in [9] (A549 cells); 30 nM in assay [10] (lncap cells); 40 nM in assay [11] (BGC-823 cells); 52 nM in assay [12]. The 50% growth inhibitory concentration (GI50) amounted to 20 nM in assay [13] (HT1080 cells); 40 nM in assay [14] (U937 cells); 30 nM in assay [15] (MOLT-4 cells); 39 nM in assay [16]; 50 nM in assay [17] (MCF-7 cells); 50 nM in assay [18] (PANC-1 cells). In addition, the values for the GI50 in [19] and in assay [20] (Hela cells) were 89 nM and 70 nM, respectively.
Turning to `C/C=C1\NC(=O)c2nc(ccc2SC)CNC(=O)C[C@@H](/C=C/CCSC(=O)CCCCCCC)OC(=O)[C@H](Cc2ccccc2)NC1=O` [Compound 189], the “IC50 HDAC7” value at HDAC7 is given as “no activity”. In addition, the concentration for 50% growth inhibition (GI50) came out at 43 nM in assay [1]; 41 nM in assay [2]; 30 nM in assay [3] (DU145 cells); 21 nM in assay [4]; 45 nM in [5]; 23 nM in assay [6]. The GI50 in [7] came out at 45 nM; in [8] it was 32 nM; in assay [9] (A549 cells), 30 nM; in [10] (lncap cells) it was 50 nM; in assay [11] (BGC-823 cells), 10 nM; in assay [12] it was 36 nM. Further, the 50% growth inhibitory concentration (GI50) in assay [13] (HT1080 cells) came to 110 nM; in assay [14] (U937 cells), 40 nM; in assay [15] (MOLT-4 cells), 50 nM; in [16], 38 nM; in assay [17] (MCF-7 cells), 30 nM; in assay [18] (PANC-1 cells), 80 nM. Moreover, the concentration for 50% growth inhibition (GI50) is 41 nM in assay [19] and 40 nM in [20] (Hela cells).
`C/C=C1\NC(=O)c2ccc(SC)c(n2)CNC(=O)C[C@@H](/C=C/CCSC=O)OC(=O)[C@H](C(C)C)NC1=O` [Compound 170]: the “IC50 HDAC7” value against HDAC7 is listed as “no activity”. Moreover, the 50% growth inhibitory concentration (GI50) came to 57 nM in assay [1]; 26 nM in assay [2]; 20 nM in [3] (DU145 cells); 88 nM in assay [4]; 62 nM in assay [5]; 37 nM in assay [6]. The 50% growth inhibitory concentration (GI50) in [7] amounted to 49 nM; in assay [8], 37 nM; in assay [9] (A549 cells) it was 60 nM; in [10] (lncap cells), 70 nM; in assay [11] (BGC-823 cells) it was 20 nM; in assay [12], 43 nM. Moreover, the GI50 was determined as 50 nM in assay [13] (HT1080 cells); 90 nM in [14] (U937 cells); 30 nM in assay [15] (MOLT-4 cells); 38 nM in assay [16]; 60 nM in assay [17] (MCF-7 cells); 50 nM in [18] (PANC-1 cells). In addition, the concentration for 50% growth inhibition (GI50) in [19] worked out at 96 nM; in assay [20] (Hela cells), 30 nM.
